# Experimental data from article PMC4249827, “A Novel CMKLR1 Small Molecule Antagonist Suppresses CNS Autoimmune Inflammatory Disease” (PLoS ONE, 2014).
# Marks after values point to notes of the source that are not given here.
# Key:
# C57BL/6 mice [1] = test: EAE induced by active immunization with MOG35-55/CFA in C57BL/6 mice; format: in vivo, mouse
# CMKLR1 KO mice = test: EAE induced by active immunization in CMKLR1 KO mice; format: in vivo, mouse; settings: 10 mg/kg daily s.c.
# [2] = molecular target: Aldehyde dehydrogenase 1 family, member A1 (ALDH1A1); set-up: method as in PubChem, 2014b; ref 22; settings: Purified enzyme; ref PubChem, 2014b; cited from earlier work
# [3] = test system: Nuclear factor of activated T cells (NFAT); set-up: method as in PubChem, 2014a; settings: Cell-based; ref PubChem, 2014a; cited from earlier work
# Thrombopoietin = test system: Thrombopoietin; set-up: method as in PubChem, 2014a; settings: Cell-based; ref PubChem, 2014a; cited from earlier work
# IL-6/STAT signaling = test system: IL-6/STAT signaling; set-up: method as in PubChem, 2014a; settings: Cell-based; ref PubChem, 2014a; cited from earlier work
# [4] = test system: MPP8 chromodomain/methylated histones; set-up: method as in PubChem, 2014b; settings: Purified protein (binding); ref PubChem, 2014b; cited from earlier work
# [5] = test system: Lassa virus binding/entry; settings: Cell-based; ref PubChem, 2014b; cited from earlier work
# [6] = test system: Bacillus anthracis lethal toxin; settings: Cell-based (process); ref PubChem, 2014a; cited from earlier work
# GPR154 = test system: GPR154; set-up: method as in PubChem, 2014b; ref 24; settings: Cell-based (GPCR); neuropeptide S-induced signaling; ref PubChem, 2014b; cited from earlier work
# Cholinesterase = molecular target: Cholinesterase; set-up: method as in Sastry et al., 1988a; ref 19; settings: Purified enzyme; ref Sastry et al., 1988a; cited from earlier work
# Acetylcholinesterase = molecular target: Acetylcholinesterase; set-up: method as in Sastry et al., 1988a; ref 19; settings: Purified enzyme; ref Sastry et al., 1988a; cited from earlier work
# [7] = test system: Acetylcholine muscarinic M1 receptor; set-up: method as in PubChem, 2014a; ref 25; settings: Cell-based (GPCR); Tested up to 35 µM; ref PubChem, 2014a; cited from earlier work
# [8] = test system: carnitine acetyletransferase; set-up: method as in PMID 3174803; settings: cited from earlier work
# Cytochrome p450 1A2 = settings: cited from earlier work
# Cytochrome p450 2D6 = settings: cited from earlier work
# Cytochrome p450 2C19 = settings: cited from earlier work
# huCMKLR1 [9] = molecular target: T1, huCMKLR1 (Homo sapiens, UniProt Q99788); test: β-arrestin2 (β-ARR2) enzymatic complementation assay, CMKLR1/CHO cells; format: cell-based; set-up: host or cells: CHO
# T1 sequence (Q99788 1-373): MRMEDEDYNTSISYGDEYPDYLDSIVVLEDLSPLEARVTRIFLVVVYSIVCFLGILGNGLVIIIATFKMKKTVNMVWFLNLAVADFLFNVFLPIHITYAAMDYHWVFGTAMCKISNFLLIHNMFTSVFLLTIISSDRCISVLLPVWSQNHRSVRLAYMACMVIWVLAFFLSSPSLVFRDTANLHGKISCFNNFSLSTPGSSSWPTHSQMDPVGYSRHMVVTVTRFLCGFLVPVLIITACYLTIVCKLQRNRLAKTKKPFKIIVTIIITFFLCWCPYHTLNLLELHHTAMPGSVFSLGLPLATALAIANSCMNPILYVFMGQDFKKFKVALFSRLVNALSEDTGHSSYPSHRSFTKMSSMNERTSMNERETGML
# Description: The engagement of a chemoattractant receptor by its cognate ligand stimulates the recruitment of β-arrestin to the carboxyl-terminus of the receptor, an event that results in receptor internalization and termination of G protein-mediated signaling. […] To test this, we used an enzymatic complementation assay (the β-ARR2 assay), whereby the complementary fragments from the β-gal active site are fused to the carboxyl-terminus of CMKLR1 and β-arrestin2. The special association of these molecules leads to enzyme activity, which is detected by a chemiluminescent substrate.
# CXCR7 = CXCR7 (Homo sapiens, UniProt P25106); test: β-arrestin2 (β-ARR2) assay, CXCR7/CHO cells, CXCL12-stimulated; settings: 3 µM
# CXCR7, sequence (P25106 whole entry, species assumed): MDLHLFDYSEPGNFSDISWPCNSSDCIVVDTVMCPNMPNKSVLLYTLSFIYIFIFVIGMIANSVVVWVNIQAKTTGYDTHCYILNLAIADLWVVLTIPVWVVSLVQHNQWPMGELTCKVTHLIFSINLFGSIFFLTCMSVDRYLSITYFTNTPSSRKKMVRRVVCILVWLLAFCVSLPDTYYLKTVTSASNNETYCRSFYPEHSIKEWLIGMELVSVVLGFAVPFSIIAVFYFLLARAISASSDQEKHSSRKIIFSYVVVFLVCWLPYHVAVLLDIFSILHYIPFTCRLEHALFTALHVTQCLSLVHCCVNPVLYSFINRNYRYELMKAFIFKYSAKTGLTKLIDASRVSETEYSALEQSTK
# huCMKLR1 [10] = molecular target: T1, huCMKLR1; test: Transwell chemotaxis of huCMKLR1/L1.2 transfectants to chemerin
# C57BL/6 mice [11] = test: Histology and flow cytometry of CNS and spleen leukocytes in EAE mice (active immunization)
compound,measurement,setting,value
"C[N+](C)(C)CCC(=O)c1cccc2ccccc12.[I-] [α-NETA, 2-(α-naphthoyl)ethyltrimethylammonium iodide]",mice that did not develop clinical EAE by day 27,C57BL/6 mice [1]; 10 mg/kg daily s.c.,~30%
same,suppression of clinical signs beyond first appearance of disease in control mice,C57BL/6 mice [1]; 10 mg/kg daily s.c.,completely suppressed clinical signs for an average of nine days
same,severity of clinical disease,"C57BL/6 mice [1]; 10 mg/kg daily s.c., through day 25",significantly reduced
same,onset of EAE,"C57BL/6 mice [1]; doses as low as 3 mg/kg daily s.c., not shown",significantly delayed the onset of EAE
same,effect on ongoing clinical EAE,"C57BL/6 mice [1]; treatment initiated upon onset of clinical signs, data not shown",failed to reverse ongoing clinical EAE
same,disease incidence by day 20,CMKLR1 KO mice; not statistically significant,40%
same,Mean day of onset (SEM),"CMKLR1 KO mice; only animals that developed EAE, not significant (p = 0.18)",14.3 (1.5) ^ns
same,IC50,[2],0.04 µM
same,IC50,[3],1.3 µM
same,IC50,Thrombopoietin,2.5 µM
same,IC50,IL-6/STAT signaling,6.3 µM
same,IC50,[4],10 µM
same,IC50,[5],10 µM
same,IC50,[6],25 µM
same,IC50,GPR154,32 µM
same,IC50,Cholinesterase,84 µM
same,IC50,Acetylcholinesterase,300 µM
same,"IC50 (µM), Acetylcholine muscarinic M1 receptor",[7],Inactive ^k
same,activity against carnitine acetyletransferase,[8],inactive
same,IC50,Cytochrome p450 1A2,8 µM
same,IC50,Cytochrome p450 2D6,≥ 10 µM
same,IC50,Cytochrome p450 2C19,≥ 10 µM
same,"IC50 (µM), Cytochrome p450 2C19",Cytochrome p450 2C19,Inactive ^j
same,IC50,huCMKLR1 [9],0.375 ± 0.042 µM
same,IC50,"huCMKLR1 [9]; IC50 (µM), β-arrestin, huCMKLR1, mean±SEM, n = 3-14 independent experiments",0.38 µM
same,inhibition of CXCL12-triggered β-arrestin2 association with CXCR7,CXCR7,moderately inhibited
same,IC50,huCMKLR1 [10],6.5 ± 0.7 µM
same,total cells in the spleen,"C57BL/6 mice [11]; 16 days p.i., did not reach statistical significance",more total cells in the spleen
same,total cells in the CNS,"C57BL/6 mice [11]; 16 days p.i., p<0.05",fewer total cells in the CNS
same,total numbers of splenic NK cells,"C57BL/6 mice [11]; EAE mice, not shown",did not induce detectable changes
same,numbers of CNS lesions,"C57BL/6 mice [11]; chronic EAE, day 37 p.i., data not shown",no differences in numbers of CNS lesions
same,"leukocyte accumulation within the CNS (T cells, B cells, dendritic cells, macrophages)","C57BL/6 mice [11]; day 16 p.i., no apparent preferential or selective effect on subsets",suppressed leukocyte accumulation
same,meningeal and parenchymal CNS inflammatory foci,"C57BL/6 mice [11]; peak acute EAE, day 16 p.i.",fewer meningeal and parenchymal CNS inflammatory foci
same,% of NK cells (CD3-NK1.1+) in lymphocyte scatter gate,"C57BL/6 mice [11]; spleen, day 16 post-EAE induction, n = 5 mice per group",0.8 (0.1) ^* %
